# Earlier results as cited in patent US20250223207A1, “COMPOSITIONS OF SUPPORTED METAL CATALYSTS AND METHODS THEREOF” (THE TEXAS A&M UNIVERSITY SYSTEM, priority 2024, published 2025).
# Settings: PFAS compounds, Table 7
row,Compound,pKa
1,"O=C(O)C(F)(OC(F)(F)C(F)(F)C(F)(F)F)C(F)(F)F (stereo not shown) [HFPO-DA, hexafluoropropylene oxide dimer acid]",2.84
2,"O=S(=O)(O)C(F)(F)C(F)(F)C(F)(F)C(F)(F)F [PFBS, perfluorobutane sulfonic acid]",−3.31
3,"O=S(=O)(O)C(F)(F)C(F)(F)C(F)(F)C(F)(F)C(F)(F)C(F)(F)F [PFHxS, perfluorohexanesulfonic acid]",−3.32
4,"O=C(O)C(F)(F)C(F)(F)C(F)(F)C(F)(F)C(F)(F)C(F)(F)C(F)(F)C(F)(F)F [PFNA, perfluorononanoic acid]",−0.21
5,"O=C(O)C(F)(F)C(F)(F)C(F)(F)C(F)(F)C(F)(F)C(F)(F)C(F)(F)F [PFOA, perfluorooctanoic acid]",1.30
6,"O=S(=O)(O)C(F)(F)C(F)(F)C(F)(F)C(F)(F)C(F)(F)C(F)(F)C(F)(F)C(F)(F)F [PFOS, perfluoro octane sulfonic acid]",=<1.0

# Settings: human bodies, oral
row,Fraction of orally taken dose metabolized,Compound
1,22.5%,"COc1cc(Cc2cnc(N)nc2N)cc(OC)c1OC [TMP, Trimethoprim]"
